From patent publication US6677310B1, “Ring-expanded nucleosides and nucleotides” (Nabi, priority 1999, dated 2004)
Converted amounts (≈) assume the structure as drawn. Like-named read-outs stand apart in the source and are kept apart here. Each block holds one compound with its values, some of them ahead of it.

Experiments:
HCMV = assay: Cytopathic effect (CPE) inhibition assay, CMV in HFF cells; conditions: for EC50: Human betaherpesvirus 5, HFF, 336 h, read-out: Antiviral Activity (EC50), anti-HCMV; for SI (Selectivity Index), Neutral Red Uptake: IC50 (neutral red, stationary HFF) divided by anti-HCMV EC50; for SI (Selectivity Index), HFF Cells: IC50 (rapidly growing HFF) divided by anti-HCMV EC50
[1] = Cell proliferation assay, rapidly growing HFF cells; type: cell-based; conditions: human, rapidly growing human foreskin fibroblast (HFF) cells; for IC50 at 72 h: rapidly growing HFF cells, read-out: Cytotoxicity (IC50), HFF Cells
Method: The toxicity of Compounds 14-1 and 14-2 was also measured in rapidly growing human foreskin fibroblast (HFF) cells and Daudi cells by cell proliferation assay (National Institute of Allergy and Infectious Diseases (NIAID), NIH, Bethesda, Md.). According to the assay method, the appropriate cells were seeded in six-well plates in MEM containing 10% FBS. Twenty four hours later, the cells were treated with several dilutions of the test compounds covering a range of 0.03-100 μg/ml. The plates were incubated in a CO2 incubator at 37° C. for 72h. The cells were washed after removing the media and subsequently released from the plate wells by the addition of 1 ml of 0.25% trypsin. The contents in the wells were mixed, diluted with Isotone III and counted using a Coulter counter. The CC50 values (concentration of compound giving 50% inhibition of cell proliferation) were calculated by linear regression analysis. Toxicity of Compound 14-1 was also evaluated in bone marrow precursor cells by previously published procedure (Sommadossi, J.-P., et al., Biochem. Pharmacol., 44:1921-1925, 1992).
(A) Cell Proliferation Assay: Twenty-four hours prior to assay, cells (HFF or Daudi) were seeded in six-well plates at a concentration of 2.5×10^4 cells per well in MEM containing 10% FBS. On the day of the assay, drugs were diluted serially in MEM containing 10% FBS at increments of 1:5 covering a range from […]. For drugs that had to be solubilized in DMSO, control wells receive MEM containing 10% DMSO. The media from the wells was then aspirated, and 2 mL of each drug concentration was added to each well. The cells were incubated in a CO2 incubator at 37° C. for 72 h. At the end of this time, the media-drug solution was removed, and the cells were washed. Trypsin-EDTA (0.25%, 1 mL) was added to each well and incubated until the cells started to come off the plate. The cell-media mixture was then pipeted up and down vigorously to break up the cell suspension and 0.2 mL of the mixture added to 9.8 mL of Isoton III and the cells were counted using a Coulter Counter. Each sample was counted three times with two replicate wells per sample. The IC50 values were calculated using a computer program.

[2] = Neutral red uptake assay, stationary HFF cells; type: cell-based; conditions: human, read-out: Cytotoxicity (IC50), Neutral Red Uptake
Method: (B) Neutral Red Uptake Assay: Twenty-four hours prior to assay, HFF cells were plated into 96-well plates at a concentration of 2.5×10^4 cells/well. After 24 h, the media was aspirated, and […] of media containing drug was added to the first row of wells and then diluted serially 1:5 using the automated Cetus Liquid Handling System. The plates were then incubated in a Co2 incubator at 37° C. for 7 days. At this time the media/drug was removed, cells were washed, 200 μL/well of 0.01% neutral red in PBS was added, and the mixture was incubated for 1 h. The dye was removed, and the cells were washed using a Nunc Plate Washer. After the wash was removed, […] of 50% ethanol/1% aqueous acetic acid was added. The plates were placed on a rotating shaker for 15 min, and the optical densities were then read at 540 nm using a plate reader.
Data Analysis: Dose-response relationships were constructed by linearly regressing the percent inhibition of parameters derived in the preceding sections against log drug concentrations. Fifty-percent inhibitory (IC50) concentrations were calculated from the regression lines.

[3] = biological target: T1, bacteriophage T7 RNA polymerase (Escherichia phage T7, UniProt P00573); assay: Transcription catalyzed by T7 RNA polymerase; type: biochemical
T1 construct: purchased Promega P2075
T1 sequence (P00573 whole entry): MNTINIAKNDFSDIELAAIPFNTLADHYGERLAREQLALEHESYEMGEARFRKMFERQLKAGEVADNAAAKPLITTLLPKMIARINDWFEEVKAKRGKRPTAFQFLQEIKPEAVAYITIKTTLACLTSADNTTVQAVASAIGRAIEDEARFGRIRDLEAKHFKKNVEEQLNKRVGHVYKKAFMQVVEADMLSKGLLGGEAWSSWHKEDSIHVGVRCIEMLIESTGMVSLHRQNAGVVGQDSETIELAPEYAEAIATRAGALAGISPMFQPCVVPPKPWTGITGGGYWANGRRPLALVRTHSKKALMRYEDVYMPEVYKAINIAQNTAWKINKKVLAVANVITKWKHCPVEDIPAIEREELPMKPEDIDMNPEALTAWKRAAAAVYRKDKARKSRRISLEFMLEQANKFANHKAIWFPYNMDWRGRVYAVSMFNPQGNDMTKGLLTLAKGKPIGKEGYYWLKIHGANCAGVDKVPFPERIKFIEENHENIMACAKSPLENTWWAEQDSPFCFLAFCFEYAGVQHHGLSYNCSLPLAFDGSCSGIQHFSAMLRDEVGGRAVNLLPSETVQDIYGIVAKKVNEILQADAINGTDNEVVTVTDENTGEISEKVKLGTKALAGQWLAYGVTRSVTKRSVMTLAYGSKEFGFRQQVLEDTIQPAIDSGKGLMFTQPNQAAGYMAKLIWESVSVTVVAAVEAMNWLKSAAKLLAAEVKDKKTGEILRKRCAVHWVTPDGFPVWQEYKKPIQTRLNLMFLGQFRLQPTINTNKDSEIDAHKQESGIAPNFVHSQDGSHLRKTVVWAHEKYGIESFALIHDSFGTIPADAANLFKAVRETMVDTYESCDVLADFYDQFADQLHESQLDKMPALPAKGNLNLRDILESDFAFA
Method: To show whether the “fat” nucleotide Compound 15-2 (FNTP) is incorporated into RNA during transcription, experiments were performed using bacteriophage T7 RNA polymerase (RNAP) and a synthetic 42-mer DNA template shown below that is annealed to a 17-nucleotide promoter specific for T7 RNAP. This promoter-template enables the synthesis of 25-mer RNA, and the purine analogue may be incorporated in positions +1, +11, +13, +15, +21, +22, and +23.
Transcription reaction conditions were optimized with the use of ^32P CTP for labeling RNA transcripts. Polyacrylimide gel electrophoresis of the transcription products obtained from the 42-mer template, using 1 mM each of four natural NTPs, reveled a 25-mer RNA as the major product, together with shorter and longer labeled transcripts (FIG. 9, lane 1). The additional bands observed are consistent with the known ability of T7 RNA polymerase to add non-coded residues at the 3′-end of transcripts. (Milligan, J. F., et al., Nuc. Acids Res., 15, 8783-8798, 1987) With the use of 1 mM nucleotide Compound 15-2 (FNTP), the yield of transcription was reduced (lane 2).
With the use of a synthetic 37-mer DNA template, annealed to a 17-nucleotide promoter for T7 RNAP as shown below, a 20 nucleotide-long transcript RNA was obtained when the reaction mixture contained all four NTPs in appropriate concentrations, along with many shorter “abortive” fragments. (Milligan, J. F., et al., Nuc. Acids Res., 15, 8783-8798, 1987). For the reaction with modified nucleotide, typically
the concentration of the appropriate natural nucleotide was reduced. […] (Milligan, J. F., et al., Methods in Enzymol., 180, 51-63, 1989.) In the present experiments, the synthesis of RNA was compared under standard conditions (using 4 NTPs in 0.2 mM concentration each) with the synthesis of RNA by using an additional “fat” nucleoside triphosphate Compound 15-2 (FNTP) in varying (0.05-10 mM) concentrations. The reaction mixtures were incubated at 37° C. for 2 hours, and the products were denatured in a buffer containing urea. The products were separated by 20% polyacrylamide-urea gel electrophoresis and visualized by autoradiography.
Transcription samples (total volume 10 μL contained: 40 mM Tris-HCl pH 8.1 with 6 mM MgCl2, 5 mM dithiothreitol (DTT), 1 mM spermidine, 0.01% Triton-X 100, 50 μg/mL bovine serum albumin, 250 nM synthetic DNA template with a promotor for T7 RNAP, 4 units of T7 RNA polymerase, and 0.2 mM ribonucleoside triphosphates. A single α^32P-labeled NTP was added for labeling (typicallly 1 μL of 10 mCi/mL ). Inhibition assays were monitored with varying concentrations (0.05-10 mM) of nucleotide Compound 15-2. Polyacrylamide gel (20%) electrophoresis was performed on slab gels (18 cm×16 cm, or 35 cm×44 cm) containing 8M urea. […]

Hepatitis B virus (HBV) = assay: Anti-HBV assay in 2.2.15 cells (virion DNA, HBV RI); type: cell-based; conditions: 9 days; for EC90: 10 fold inhibition
Method: The anti-HBV assays were performed according to the published protocol of Korba and Milman, (Korba, B. E.; Milman, G. Antiviral Res., 15, 217 1991), using cultures of 2.2.15 cells. In brief, the assay consisted of (a) seeding the chronically HBV-producing human liver cells (Acs et al. Proc. Nat. Acad. Sci., 84, 464 1987) into 24-well tissue culture plates, and growing to confluence, (b) adding test compounds daily for a continuous 9-day period, harvesting culture media after day 9 and (c) lysing treated cells 24 hours following day 9 of treatment for the analysis of extracellular virion DNA and intracellular HBV genomic forms.
Anti-HBV activity and the toxicity against confluent 2.2.15 cells were determined by the previously described procedure (Korba, B. E., et al. Antivir. Res., 19:55-70, 1992; Korba, B. E., et al. Antivir. Res., 15:217-228, 1991). Briefly, confluent cultures of HBV transfected 2.2.15 cells were maintained on either 96-well or 24-well flat-bottomed tissue culture plates in RPMI 1640 medium with 2% fetal bovine serum (FBS). The cells were treated with test compounds daily for nine consecutive days. The culture media were harvested on day 9 to quantify the amount of virion DNA. On day 10, the cells were lysed to quantify the amount of intracellular HBV replicative intermediates (RI). The quantification of virion DNA and the HBV RI were done by blot hybridization methods (Korba, B. E., et al. Antivir. Res., 19:55-70, 1992; Korba, B. E., et al. Antivir. Res., 15:217-228, 1991). Cellular toxicity against separate cultures of confluent 2.2.15 cells was measured after treatment with the compounds for nine days under identical culture conditions as those used for the antiviral assay (Korba, B. E., et al. Antivir. Res., 19:55-70, 1992). Uptake of neutral red dye by treated cells was compared with dye uptake by untreated control cells (Korba, B. E., et al. Antivir. Res., 19:55-70, 1992).

rabbit liver guanase = biological target: T2, rabbit liver guanase (Oryctolagus cuniculus, UniProt G1T386); assay: Inhibition of guanase (Examples 10 and 11); type: biochemical; conditions: Lineweaver-Burk plot; for Ki: Tris buffer pH 7.6, 21° C., substrate guanine
T2 construct: employing rabbit liver guanase; from tissue; host or cells: rabbit liver
T2 sequence (G1T386 1-454): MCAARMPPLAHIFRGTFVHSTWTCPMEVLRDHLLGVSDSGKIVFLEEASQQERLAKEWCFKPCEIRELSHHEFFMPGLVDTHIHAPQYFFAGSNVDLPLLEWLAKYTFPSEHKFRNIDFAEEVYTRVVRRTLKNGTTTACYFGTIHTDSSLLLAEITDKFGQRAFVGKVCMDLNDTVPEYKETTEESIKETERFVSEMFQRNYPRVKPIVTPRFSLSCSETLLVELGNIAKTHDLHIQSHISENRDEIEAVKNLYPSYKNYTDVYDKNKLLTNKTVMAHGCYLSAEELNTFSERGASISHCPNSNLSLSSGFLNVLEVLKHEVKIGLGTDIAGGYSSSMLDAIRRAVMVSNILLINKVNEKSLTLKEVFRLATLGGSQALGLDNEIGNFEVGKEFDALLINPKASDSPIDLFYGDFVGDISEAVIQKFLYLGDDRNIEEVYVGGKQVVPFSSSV
From the text: The concentration of the inhibitor ranged from 4×10^−5 M to 8×10^−5 M (Example 7), and 4.4×10^−5 M to 8.9×10^−5 M (Example 8). The concentration of the enzyme used for each assay was 0.0082 units/mL.

Structure (SMILES): O=C1c2nc(Br)n(Cc3ccccc3)c2N(Cc2ccccc2)C(=O)CN1Cc1ccccc1 [Compound 19, 3,4,7-Tribenzyl-2-bromo-4,5,7,8-tetrahydro-6H-imidazo [4,5-e][1,4]diazepine-5,8-dione]
melting point: 174 to 176 °C
EC50 (HCMV): 8.1 µg/mL (≈ 15.7 µM)
SI (Selectivity Index), Neutral Red Uptake (HCMV): 10.9
SI (Selectivity Index), HFF Cells (HCMV): 6.98
IC50 at 72 h [1]: 56.5 µg/mL (≈ 110 µM)
IC50 at 7 days [2]: 88.1 µg/mL (≈ 171 µM)

Structure (SMILES): N=c1nc(N)nc(N)c2ncn([C@@H]3O[C@H](COP(=O)(O)OP(=O)(O)OP(=O)(O)O)[C@@H](O)[C@H]3O)c12 [Compound 15-2, 5′-triphosphate derivative of 4,6-diamino-8-imino-8H-1-β-D-ribofuranosylimidazo[4,5-e][1,3]diazepine]
incorporation into RNA during transcription (substrate for T7 polymerase) ([3]; 42-mer DNA template): not a substrate for T7 polymerase
inhibition of T7 RNA polymerase-catalyzed transcription ([3]; 42-mer and 37-mer DNA templates, 0.05-10 mM): inhibitor of T7 polymerase

EC50 (HCMV): 0.05 µg/mL (≈ 0.196 µM)
Structure (SMILES): Nc1nc(O)c2ncn(COC(CO)CO)c2n1 [Ganciclovir, reference compound]
SI (Selectivity Index), Neutral Red Uptake (HCMV): >2000
SI (Selectivity Index), HFF Cells (HCMV): 800
CC50 at 72 h ([1]; Rapidly growing HFF cells): > 40 µg/mL
IC50 at 72 h [1]: 40 µg/mL (≈ 157 µM)
IC50 at 7 days [2]: > 100 µg/mL

Structure (SMILES): Nc1ccn([C@H]2CS[C@@H](CO)O2)c(=O)n1 [Compound 3TC, 2′,3′-dideoxy-L-3′-thiacytidine, reference compound]
EC90 (Hepatitis B virus (HBV); extracellular HBV virion DNA, read-out: EC90 Virion): 198 ± 20 nM
EC50 (Hepatitis B virus (HBV); extracellular HBV virion DNA, read-out: EC50 Virion): 65 ± 10 nM
EC90 (Hepatitis B virus (HBV); intracellular HBV DNA replicative intermediates, read-out: EC90 HBV RI): 922 ± 85 nM
EC50 (Hepatitis B virus (HBV); intracellular HBV DNA replicative intermediates, read-out: EC50 HBV RI): 172 ± 19 nM

melting point: > 220 °C
Structure (SMILES): N=c1nc(N)c2nc[nH]c2c(N)n1 [Example 1, 4,8-Diamino-6-imino-1H-imidazo[4,5-e][1,3]diazepine]

mode of inhibition of guanase (rabbit liver guanase): competitive inhibitors
Ki (rabbit liver guanase): 190000 nM
Structure (SMILES): COC(=O)C1(N)NC(=O)c2[nH]cnc2NC1=O (stereo not drawn) [Example 7, 6-Amino-6-methoxycarbonyl-4,5,7,8-tetrahydro-6H-imidazo[4,5-e]-[1,4]diazepine-5,8-dione]

melting point: 202 to 204 °C
Structure (SMILES): N=c1nc(N)c2ncn(Cc3ccccc3)c2c(N)n1 [Example 3, 4,8-Diamino-1-benzyl-6-iminoimidazo[4,5-e][1,3]diazepine]

mode of inhibition of guanase (rabbit liver guanase): competitive inhibitors
Ki (rabbit liver guanase): 540000 nM
Structure (SMILES): COC(=O)C1(OC)NC(=O)c2[nH]cnc2NC1=O (stereo not drawn) [Example 8, 6-Methoxy-6-methoxycarbonyl-4,5,7,8-tetrahydro-6H-imidazo[4,5-e][1,4]-diazepine-5,8-dione]
